According to patent US12186332B2, “Methods for overcoming WNT/beta-catenin anti-cancer resistance in leukemia stem cells” (STOWERS INSTITUTE FOR MEDICAL RESEARCH, priority 2019, dated 2025):

Assays:
[1] = tested on: Akt-enhanced β-catenin activity (TOP-Luc); test: HTS TOPFlash/FOPFlash luciferase reporter dose-response; format: cell-based; conditions: DNR dose-response (FIG. 13A)
[2] = tested on: blast cells, LSCs and HSPCs of leukemic Pten:β-cat^Act mice; format: in vivo; conditions: low-dose DNR with chemotherapy
Description: Leukemic mice were treated with vehicle, chemotherapy, [Low]DXR (5×0.5 mg/kg), clinical DXR (1×20 mg/kg), or chemotherapy+[Low]DXR as described in FIG. S2.
Average frequency of each population (n≥6 per group) is shown.
Absolute number/femur±SD of each population (n≥6 per group) is shown.
At 10 days post-treatment, BM was analyzed by flow cytometry to determine frequency of blast cells. Average frequency±SD (n 6 per group). Note that this experiment used clinical dose (normal) or [Low]
Alternatively, a single injection on day 1 of 0.8 or 2.5 μg/g of DXR-loaded nanoparticles (NanoDXR) was given with and without chemotherapy. At 10 days post-treatment, BM was analyzed by flow cytometry to determine frequency of LSCs. Shown is average frequency±SD (n 6 per group).
Alternatively, a single injection on day 1 of 0.8 or 2.5 μg/g of DXR-loaded nanoparticles (NanoDXR) was given with and without chemotherapy. At 10 days post-treatment, BM was analyzed by flow cytometry to determine frequency of HSPCs. Shown is average frequency±SD (n 6 per group).
Whole bone marrow was isolated from uninduced HSC-SCL-Cre^+ Pten^fx/fx βcat^fx(Exon3)/+ (Pn:β-cat^Act) mice and combined with an equal portion of Cre negative bone marrow from a littermate and transplanted into irradiated (10 Grays) B6.SJL-Ptprc^a Pepc^b/BoyJ (Ptprc) recipients.
Chemotherapy for the animal model consisted of Nelarabine (Selleck) and Dexamethasone (BioVision) administered daily for 5 days consecutively. 43.4 mg/ml Nelarabine was administered intravenously via the tail vain according to the formula: Body Weight (g)×5=volume to inject (μl), which yielded 217 mg/kg. 2.5 mg/ml Dexamethasone was injected intraperitoneally according to the formula: Body Weight (g)×4=volume to inject (μl), yielding 10 mg/kg. […] [Low] NanoDXR treatment used doxorubicin nanoparticles (Tran et al. 2014) administered as a single IV injection once per week on day 1 relative to above treatments using 0.8 mg/kg. Maintenance [Low] NanoDXR consisted of once per week injections of 0.4 mg/kg. Groups combining Nelarabine with Doxorubicin used a single injection containing both drugs. All drugs were solubilized in 45% (2-Hydroxypropyl)-p-cyclodextrin (HBC) or 0.9% NaCl.
Cells were collected from bone marrow (femur and tibia), spleen, peripheral blood, and thymus. For cell surface phenotyping, a lineage cocktail (Lin) was used including CD3 (for HSPC but not LSC analysis), CD4, CD8, Mac-1, Gr, B220, IgM, and Ter119 (eBioscience, San Diego, CA). Monoclonal antibodies against CD3 (separate fluorophore for LSC analysis), Sca-1, c-Kit, CD45.1, and CD45.2 were also used where indicated. Cell sorting and analysis were performed using an inFlux (BD), MoFlo (Dako, Ft. Collins, CO) and/or CyAn ADP (Dako, Ft. Collins, CO). Data analysis was performed using FlowJo software (Ashland, OR).

pS^552-β-cat^+ LSCs = test: Pilot clinical trial of low-dose DNR in relapsed/refractory adult AML; format: in vivo, human; conditions: low-dose DNR 6.75 mg/m^2 daily ×5; BM day 0 vs day 8
Description: This was registered at clinicaltrials.gov (identifier NCT02914977). All patients provided informed consent according to institutional guidelines. At least two prior induction attempts were required for fit patients with primary refractory leukemia; unfit or relapsed patients were allowed entry with one prior therapy. There was no limit on number of prior therapies. […] Exclusion criteria included presence of acute promyelocytic leukemia, CNS leukemia or total lifetime anthracycline exposure exceeding the equivalent of 900 mg/m^2 of DNR. Treatment consisted of bone marrow aspiration for correlative studies followed by one cycle of low dose DNR (6.75 mg/m^2×5 consecutive days, days 1-5) and second bone marrow aspiration on day 8. Effects on LSC population were measured by flow cytometry. Adverse events (AEs) and laboratory values were monitored for safety. This study is compliant with all relevant ethical regulations regarding research involving human participants and was approved by the Human Subjects Committee at the University of Kansas.

## COc1cccc2c1C(=O)c1c(O)c3c(c(O)c1C2=O)C[C@@](O)(C(C)=O)C[C@@H]3O[C@H]1C[C@H](N)[C@H](O)[C@H](C)O1 [DNR, Daunorubicin]
[1]
  inhibition of pS552-β-catenin compared with DXR: similarly inhibits pS^552-β-catenin
[2]
  LSC, HSPC and blast cell frequency compared with low-dose doxorubicin: performs similarly to low-dose doxorubicin
pS^552-β-cat^+ LSCs
  patients with substantial reductions in pS552-β-cat+ LSCs: 5/10
  patients with unchanged pS552-β-cat+ LSCs: 3/8
